Measured values reported in patent US20240018166A1, “SULFONYL UREA NLRP3 INFLAMMASOME INHIBITORS” (Venatorx Pharmaceuticals, Inc., priority 2020, published 2024).

How the values were obtained:
[1] = test system: IL-1β; experiment: IL-1β inhibition assay (ELISA/HTRF of culture supernatants); format: cell-based; settings: Homo sapiens, PMA-differentiated THP-1 cells, tested 10 μM to 0.003 μM
Procedure, shortened: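 PMA-differentiated THP-1 cells treated at final compound concentrations of 10 μM to 0.003 μM; supernatant IL-1β quantified by Quantikine ELISA or HTRF. Background-subtracted values expressed as % of vehicle controls; EC50 from four-parameter variable-slope nonlinear regression.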

[2] = MTT cell viability assay, THP-1 cells; format: cell-based; settings: human, unstimulated THP-1 cells, read-out: THP-1 Cytotoxicity CC50
Procedure, shortened: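 Unstimulated THP-1 (5×10^4/well) or HepG2 (5×10^3/well) cells exposed to compound for 72 h, then MTT 3 h at 37 °C. Formazan solubilised overnight in DMF/acetic acid/SDS (THP-1) or in DMSO (HepG2); absorbance 570 nm. CC50 by four-parameter fit of percent vehicle control.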

[3] = MTT cell viability assay, HepG2 cells; format: cell-based; settings: human, read-out: HepG2 Cytotoxicity CC50
Method: In order to assess the cytotoxicity of the compounds, an MTT cell viability assay was performed in either unstimulated THP-1 or HepG2 cells as follows. 5×10^4 THP-1 or 5×10^3 HepG2 cells were seeded into each well of a 96-well plate in 90 μL of media. Compounds were added to cells as described for the IL-10 assay and returned to the incubator for an additional 72 hours. Next, 25 μL of MTT solution (5 mg/mL in sterile PBS) was added to each well. Plates were incubated for 3 hours at 37° C., 5% CO2. Next, for THP-1 cells, 100 μl of MTT solubilization solution (40% Dimethylformamide, 2% glacial acetic acid, 16% sodium dodecyl sulfate) was then added to each well and plates were incubated at room temperature in the dark overnight. For HepG2 cells, media was aspirated, 50 μL of DMSO was added and plates were mixed briefly with an orbital plate shaker. Absorbance at 570 nm was measured using a Perkin-Elmer EnVision plate reader.
Absorbance values were converted to percentage of vehicle-treated controls. Data was then analyzed using a non-linear regression (variable slope (four-parameter)) equation in GraphPad Prism 7.0. […]

[4] = molecular target: T1, IL-1 (Homo sapiens, UniProt P01584); settings: cited from earlier work
T1 construct: host or cells: patients (in vivo)

| Molecule | EC50 [1] | CC50 at 72 h [2] | CC50 at 72 h [3] | incidence of fatal infection ([4]; CANTOS trial) | reduction in total cancer mortality (mostly lung cancer) compared to placebo ([4]; high-dose) |
| --- | --- | --- | --- | --- | --- |
| CC(C)c1cc(C#N)c(F)c(C(C)C)c1NC(=O)NS(=O)(=O)c1ccc2c(c1)C(C)OB2O (centres unmarked) [Example 56, N-((4-cyano-3-fluoro-2,6-diisopropylphenyl)carbamoyl)-1-hydroxy-3-methyl-1,3-dihydrobenzo[c][1,2]oxaborole-5-sulfonamide] | 1 to 10 µM | > 10 µM | > 10 µM | – | – |
| CC(C)(CCn1ccc(S(=O)(=O)NC(=O)Nc2c3c(cc4c2CCC4)CCC3)n1)B1OC(C)(C)C(C)(C)O1 [Example 62, N-((1,2,3,5,6,7-hexahydro-s-indacen-4-yl)carbamoyl)-1-(3-methyl-3-(4,4,5,5-tetramethyl-1,3,2-dioxaborolan-2-yl)butyl)-1H-pyrazole-3-sulfonamide] | < 1 µM | > 10 µM | > 10 µM | – | – |
| CC1(C)OB(O)c2ccc(S(=O)(=O)NC(=O)Nc3c4c(cc5c3CCC5)CCC4)cc21 [Example 57, N-((1,2,3,5,6,7-hexahydro-s-indacen-4-yl)carbamoyl)-1-hydroxy-3,3-dimethyl-1,3-dihydrobenzo[c][1,2]oxaborole-5-sulfonamide] | 1 to 10 µM | > 10 µM | > 10 µM | – | – |
| canakinumab: the neutralizing IL-10 antibody canakinumab (anti-IL-1, Novartis) | – | – | – | higher incidence of fatal infection | > 50% |
| COc1cc(-c2ccc3c(c2NC(=O)NS(=O)(=O)c2ccc4c(c2)C(O)OB4O)CCC3)ccn1 (centres unmarked) [Example 53, 1,3-dihydroxy-N-((5-(2-methoxypyridin-4-yl)-2,3-dihydro-1H-inden-4-yl)carbamoyl)-1,3-dihydrobenzo[c][1,2]oxaborole-5-sulfonamide] | 1 to 10 µM | > 10 µM | > 10 µM | – | – |
| CC1(C)OB(CCCC2(S(=O)(=O)NC(=O)Nc3c4c(cc5c3CCC5)CCC4)CC2)OC1(C)C [Example 70, N-((1,2,3,5,6,7-hexahydro-s-indacen-4-yl)carbamoyl)-1-(3-(4,4,5,5-tetramethyl-1,3,2-dioxaborolan-2-yl)propyl)cyclopropane-1-sulfonamide] | 1 to 10 µM | – | > 10 µM | – | – |
| CC(C)c1cc(C#N)c(F)c(C(C)C)c1NC(=O)NS(=O)(=O)c1ccn(CCCB(O)O)n1 [Example 68, (3-(3-(N-((4-cyano-3-fluoro-2,6-diisopropylphenyl)carbamoyl)sulfamoyl)-1H-pyrazol-1-yl)propyl)boronic acid] | < 1 µM | – | > 10 µM | – | – |

Further lines, with some results ahead:

| EC50 [1] | Molecule | CC50 at 72 h [2] | CC50 at 72 h [3] | incidence of fatal infection ([4]; CANTOS trial) | reduction in total cancer mortality (mostly lung cancer) compared to placebo ([4]; high-dose) |
| --- | --- | --- | --- | --- | --- |
| < 1 µM | CC(CCn1ccc(S(=O)(=O)NC(=O)Nc2c3c(cc4c2CCC4)CCC3)n1)CB1OC(C)(C)C(C)(C)O1 (centres unmarked) [Example 61, N-((1,2,3,5,6,7-hexahydro-s-indacen-4-yl)carbamoyl)-1-(3-methyl-4-(4,4,5,5-tetramethyl-1,3,2-dioxaborolan-2-yl)butyl)-1H-pyrazole-3-sulfonamide] | > 10 µM | > 10 µM | – | – |
| 1 to 10 µM | CC(CCB1O[C@@H]2C[C@@H]3C[C@@H](C3(C)C)[C@]2(C)O1)n1ccc(S(=O)(=O)NC(=O)Nc2c3c(cc4c2CCC4)CCC3)n1 (stereo partly drawn) [Example 60, N-((1,2,3,5,6,7-hexahydro-s-indacen-4-yl)carbamoyl)-1-(4-((3aS,4S,6S,7aR)-3a,5,5-trimethylhexahydro-4,6-methanobenzo[d][1,3,2]dioxaborol-2-yl)butan-2-yl)-1H-pyrazole-3-sulfonamide] | > 10 µM | > 10 µM | – | – |
| < 1 µM | COc1cc(-c2ccc3c(c2NC(=O)NS(=O)(=O)c2ccc4c(c2)C(C)OB4O)CCC3)ccn1 (centres unmarked) [Example 55, 1-hydroxy-N-((5-(2-methoxypyridin-4-yl)-2,3-dihydro-1H-inden-4-yl)carbamoyl)-3-methyl-1,3-dihydrobenzo[c][1,2]oxaborole-5-sulfonamide] | > 10 µM | > 10 µM | – | – |
| > 10 µM | CC(C)c1cc(C#N)c(F)c(C(C)C)c1NC(=O)NS(=O)(=O)c1ccc2c(c1)C(O)OB2O (centres unmarked) [Example 52, N-((4-cyano-3-fluoro-2,6-diisopropylphenyl)carbamoyl)-1,3-dihydroxy-1,3-dihydrobenzo[c][1,2]oxaborole-5-sulfonamide] | > 10 µM | > 10 µM | – | – |
| > 10 µM | O=C(Nc1c2c(cc3c1CCC3)CCC2)NS(=O)(=O)c1ccc2c(c1)C(O)OB2O (centres unmarked) [Example 54, N-((1,2,3,5,6,7-hexahydro-s-indacen-4-yl)carbamoyl)-1,3-dihydroxy-1,3-dihydrobenzo[c][1,2]oxaborole-5-sulfonamide] | > 10 µM | > 10 µM | – | – |
| 1 to 10 µM | O=C(Nc1c2c(cc3c1CCC3)CCC2)NS(=O)(=O)C1CCN(CCCB(O)O)CC1 [Example 72, (3-(4-(N-((1,2,3,5,6,7-hexahydro-s-indacen-4-yl)carbamoyl)sulfamoyl)piperidin-1-yl)propyl)boronic acid] | – | > 10 µM | – | – |
